Results: patent US9247759B2, “Identification of human T2R receptors that respond to bitter compounds that elicit the bitter taste in compositions, and the use thereof in assays to identify compounds that inhibit (block) bitter taste in compositions and use thereof” (SENOMYX, INC., priority 2007, dated 2016)
Where two headings read alike, the source gives them in different places.

Legend:
hT2R64 = hT2R64 (Homo sapiens (Human), UniProt P59538); assay: hT2R panel inhibition, transient HEK293 G16g44, agonist Aristolochic Acid 1 μM; assay type: cell-based; conditions: HEK293, compound at 25 μM; receptor activated to EC80 with the corresponding agonist; read-out: screening result against bitter receptor 64
Protocol: (§1) Specifically, in order to evaluate the inhibitory selectivity of the Compound C compound, this compound was tested against 22 human T2Rs which were deorphaned by Senomyx. These receptors and the bitter ligands that activate these human T2Rs are reported in earlier patent applications which are incorporated by reference herein. These 22 human T2Rs are hT2R1, 3, 4, 5, 7, 8, 9, 10, 13, 14, 16, 44, 51, 54, 55, 61, 63, 64, 65, 67, 71 and 75. The amino acid and nucleic acid sequences of all of these T2Rs may be found in these earlier patent applications. These human T2Rs were each individually transiently transfected into HEK293 cells that stably express the promiscuous G protein G16g44 and functional assays were effected using these receptors as disclosed in these same patent applications. […] The ligands were used at EC80 concentration levels. The list of bitter ligands utilized and the tested ligand concentrations are contained in Table 5 of this example.
(§2) Relating to the foregoing, FIG. 5 contains experimental results wherein Compound C was tested with different agonist compounds. The inhibition activity is represented by the reduction of receptor activity in the presence of Compound C. […] These 13 hT2Rs are hT2R3, 7, 10, 14, 16, 44, 51, 55, 61, 63, 64, 65, and 71.

hT2R3 = hT2R3 (Homo sapiens (Human), UniProt Q9NYW6); assay: hT2R panel inhibition, transient HEK293 G16g44, agonist Chloroquine pH6.5 50 μM; assay type: cell-based; conditions: HEK293, compound at 25 μM; receptor activated to EC80 with the corresponding agonist; read-out: screening result against bitter receptor 3
Protocol: as §1, §2

hT2R55 = assay: hT2R panel inhibition, transient HEK293 G16g44, agonist Cinchonine 150 μM; assay type: cell-based, human; conditions: compound at 25 μM; receptor activated to EC80 with the corresponding agonist
Protocol: as §1, §2

hT2R61 = hT2R61 (Homo sapiens (Human), UniProt P59537); assay: hT2R panel inhibition, transient HEK293 G16g44, agonist Aristolochic Acid 25 nM; assay type: cell-based; conditions: HEK293, compound at 25 μM
Protocol: as §1, §2

hT2R71 = hT2R71 (Homo sapiens (Human), UniProt P59536); assay: hT2R panel inhibition, transient HEK293 G16g44, agonist Picric Acid 10 μM; assay type: cell-based; conditions: HEK293, compound at 25 μM; receptor activated to EC80 with the corresponding agonist; read-out: screening result against bitter receptor 71
Protocol: as §1, §2

hT2R63 = assay: hT2R panel inhibition, transient HEK293 G16g44, agonist Caffeine 1 mM or Andrographolide 100 μM; assay type: cell-based, human; conditions: compound at 25 μM; for screening result against bitter receptor 63: receptor activated to EC80 with the corresponding agonist; for inhibition of bitter receptor 63: receptor activated to EC80 with agonist
Protocol: as §1, §2

hT2R5 = hT2R5 (Homo sapiens (Human), UniProt Q9NYW4); assay: hT2R panel inhibition, transient HEK293 G16g44, agonist Picoline 10 mM; assay type: cell-based; conditions: HEK293, compound at 25 μM; receptor activated to EC80 with the corresponding agonist; read-out: screening result against bitter receptor 5
Protocol: as §1, §2

hT2R7 = hT2R7 (Homo sapiens (Human), UniProt Q9NYW3); assay: hT2R panel inhibition, transient HEK293 G16g44, agonist Chloroquine pH6.5 10 mM; assay type: cell-based; conditions: HEK293, compound at 25 μM
Protocol: as §1, §2

hT2R14 [1] = target: T1, hT2R14 (Homo sapiens (Human), UniProt Q9NYV8); assay: hT2R14 antagonist high-throughput FLIPR assay, stable cell line with G16g44, agonist aristolochic acid; assay type: cell-based; conditions: Table D; read-out: hT2R14 IC50
In short: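 HEK293 cells stably expressing hT2R14 with chimeric G16g44 were stimulated with aristolochic acid (3 μM), giving 70-80% of maximal receptor activity. Test compounds were added together with the agonist, and antagonism was read as fluorescent calcium signal on FLIPR.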

hT2R14 [2] = target: T1, hT2R14; assay: hT2R panel inhibition, transient HEK293 G16g44, agonist Aristolochic Acid 2 μM; assay type: cell-based; conditions: HEK293, compound at 25 μM
Protocol: as §1

hT2R44 = assay: hT2R panel inhibition, transient HEK293 G16g44, agonist Denatonium 0.5 μM; assay type: cell-based, human; conditions: compound at 25 μM; for screening result against bitter receptor 44: receptor activated to EC80 with the corresponding agonist
Protocol: as §1, §2

hT2R10 = hT2R10 (Homo sapiens (Human), UniProt Q9NYW0); assay: hT2R panel inhibition, transient HEK293 G16g44, agonist Strychnine 50 μM; assay type: cell-based; conditions: HEK293, read-out: screening result against bitter receptor 10, compound at 25 μM; receptor activated to EC80 with the corresponding agonist
Protocol: as §1, §2

hT2R16 = hT2R16 (Homo sapiens (Human), UniProt Q9NYV7); assay: hT2R panel inhibition, transient HEK293 G16g44, agonist Salicin 1 mM; assay type: cell-based; conditions: HEK293, compound at 25 μM; receptor activated to EC80 with the corresponding agonist; read-out: screening result against bitter receptor 16
Protocol: as §1, §2

[3] = receptor activated to EC80 with the corresponding agonist, read-out: screening result against bitter receptor 61
[4] = receptor activated to EC80 with agonist, read-out: inhibition of bitter receptor 7
[5] = receptor activated to EC80 with agonist, read-out: inhibition of bitter receptor 14
[6] = receptor activated to EC80 with the corresponding agonist, read-out: screening result against bitter receptor 14

T1 sequence (Q9NYV8 whole entry): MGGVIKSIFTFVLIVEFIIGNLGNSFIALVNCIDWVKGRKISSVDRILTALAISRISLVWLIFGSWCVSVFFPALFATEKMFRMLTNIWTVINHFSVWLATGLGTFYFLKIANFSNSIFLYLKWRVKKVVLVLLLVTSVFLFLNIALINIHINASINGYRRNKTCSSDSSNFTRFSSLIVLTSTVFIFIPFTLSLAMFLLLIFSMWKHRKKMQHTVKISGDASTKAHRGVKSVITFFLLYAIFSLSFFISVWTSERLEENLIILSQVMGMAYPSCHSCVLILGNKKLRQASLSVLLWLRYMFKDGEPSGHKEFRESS
Sequence of hT2R64 (P59538 whole entry): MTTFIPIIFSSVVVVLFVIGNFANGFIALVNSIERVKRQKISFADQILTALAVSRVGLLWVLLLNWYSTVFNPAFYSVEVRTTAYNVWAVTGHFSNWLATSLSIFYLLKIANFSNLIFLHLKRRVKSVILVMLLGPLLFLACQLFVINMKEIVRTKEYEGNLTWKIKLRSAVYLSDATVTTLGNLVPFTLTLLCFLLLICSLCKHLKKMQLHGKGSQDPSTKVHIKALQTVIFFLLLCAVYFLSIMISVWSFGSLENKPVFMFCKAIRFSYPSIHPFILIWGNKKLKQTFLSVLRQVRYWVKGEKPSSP
Sequence of hT2R3 (Q9NYW6 whole entry): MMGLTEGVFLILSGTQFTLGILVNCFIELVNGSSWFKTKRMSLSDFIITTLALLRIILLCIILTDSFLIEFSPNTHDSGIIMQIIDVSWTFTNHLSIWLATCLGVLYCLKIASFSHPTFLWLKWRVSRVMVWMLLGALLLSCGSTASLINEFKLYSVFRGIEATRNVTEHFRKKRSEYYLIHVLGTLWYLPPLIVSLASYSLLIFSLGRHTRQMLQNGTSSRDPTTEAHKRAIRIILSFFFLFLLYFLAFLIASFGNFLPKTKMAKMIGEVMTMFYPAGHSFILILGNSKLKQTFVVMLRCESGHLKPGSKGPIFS
Sequence of hT2R61 (P59537 whole entry): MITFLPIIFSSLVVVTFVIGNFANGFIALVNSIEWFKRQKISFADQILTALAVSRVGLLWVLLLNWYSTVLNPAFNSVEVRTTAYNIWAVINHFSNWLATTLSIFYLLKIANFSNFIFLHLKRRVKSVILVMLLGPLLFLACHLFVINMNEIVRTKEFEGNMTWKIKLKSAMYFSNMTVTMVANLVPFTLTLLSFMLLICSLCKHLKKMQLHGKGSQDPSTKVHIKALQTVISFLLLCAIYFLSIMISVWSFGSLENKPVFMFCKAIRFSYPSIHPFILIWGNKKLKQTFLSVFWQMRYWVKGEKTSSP
Sequence of hT2R7 (Q9NYW3 whole entry): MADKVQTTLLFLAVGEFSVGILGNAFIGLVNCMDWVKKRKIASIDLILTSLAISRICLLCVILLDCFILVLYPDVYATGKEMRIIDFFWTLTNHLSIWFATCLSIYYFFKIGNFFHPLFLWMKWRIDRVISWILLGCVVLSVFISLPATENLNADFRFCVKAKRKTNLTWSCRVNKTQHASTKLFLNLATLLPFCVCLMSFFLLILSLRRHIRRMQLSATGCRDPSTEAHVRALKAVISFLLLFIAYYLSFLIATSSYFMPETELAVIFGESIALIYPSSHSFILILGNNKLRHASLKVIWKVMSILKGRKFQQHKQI
Sequence of hT2R71 (P59536 whole entry): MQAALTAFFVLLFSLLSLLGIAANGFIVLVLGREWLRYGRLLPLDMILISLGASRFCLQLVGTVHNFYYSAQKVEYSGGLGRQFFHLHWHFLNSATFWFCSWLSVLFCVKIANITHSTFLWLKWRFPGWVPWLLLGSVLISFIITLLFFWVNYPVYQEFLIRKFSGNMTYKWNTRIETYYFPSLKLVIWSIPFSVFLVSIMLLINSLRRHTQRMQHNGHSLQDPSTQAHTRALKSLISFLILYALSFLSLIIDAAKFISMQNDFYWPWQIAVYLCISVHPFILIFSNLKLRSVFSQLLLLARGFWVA
Sequence of hT2R5 (Q9NYW4 whole entry): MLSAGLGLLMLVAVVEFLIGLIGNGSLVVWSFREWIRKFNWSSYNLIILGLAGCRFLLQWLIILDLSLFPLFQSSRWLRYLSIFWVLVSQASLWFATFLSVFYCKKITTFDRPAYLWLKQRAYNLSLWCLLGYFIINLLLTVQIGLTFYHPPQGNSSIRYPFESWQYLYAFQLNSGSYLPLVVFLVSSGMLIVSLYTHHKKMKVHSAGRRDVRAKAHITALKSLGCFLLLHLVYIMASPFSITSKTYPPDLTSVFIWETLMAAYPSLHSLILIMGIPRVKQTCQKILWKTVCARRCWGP
Sequence of hT2R16 (Q9NYV7 whole entry): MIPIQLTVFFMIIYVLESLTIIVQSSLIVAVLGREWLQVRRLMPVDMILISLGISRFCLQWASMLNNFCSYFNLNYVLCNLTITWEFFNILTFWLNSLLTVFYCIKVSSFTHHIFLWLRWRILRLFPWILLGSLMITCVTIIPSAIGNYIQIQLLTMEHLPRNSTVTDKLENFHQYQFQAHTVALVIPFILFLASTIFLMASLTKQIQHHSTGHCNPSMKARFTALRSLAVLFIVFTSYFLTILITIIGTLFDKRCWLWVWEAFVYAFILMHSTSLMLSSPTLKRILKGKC
Sequence of hT2R10 (Q9NYW0 whole entry): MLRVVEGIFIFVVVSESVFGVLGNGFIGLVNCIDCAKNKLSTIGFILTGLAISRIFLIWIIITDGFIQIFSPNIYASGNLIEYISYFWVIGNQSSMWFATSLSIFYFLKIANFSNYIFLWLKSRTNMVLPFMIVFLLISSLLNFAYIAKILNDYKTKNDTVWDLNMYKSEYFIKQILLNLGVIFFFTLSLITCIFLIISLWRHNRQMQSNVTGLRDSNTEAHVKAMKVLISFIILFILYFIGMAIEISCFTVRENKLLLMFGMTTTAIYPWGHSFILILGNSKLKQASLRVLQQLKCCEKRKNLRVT

| Compound | inhibition at 25 µM (hT2R64) [%] | inhibition at 25 µM (hT2R3) [%] | screening result against bitter receptor 55 (hT2R55) | inhibition at 25 µM (hT2R61; [3]) [%] | inhibition at 25 µM (hT2R71) [%] | screening result against bitter receptor 63 (hT2R63) | screening result against bitter receptor 44 (hT2R44) | also measured |
| --- | --- | --- | --- | --- | --- | --- | --- | --- |
| COc1ccc(CNS(=O)(=O)c2ccc(C(=O)O)cc2)cc1 [Example 5-56, 4-(N-(4-methoxybenzyl)sulfamoyl)benzoic acid] | 20 to 40 | 20 to 40 | – | – | – | – | – | – |
| COc1ccc(CN(Cc2cccs2)S(=O)(=O)c2ccc(C(=O)O)cc2)cc1 [Example 5-61, 4-(N-(4-methoxybenzyl)-N-(thiophen-2-ylmethyl)sulfamoyl)benzoic acid] | 20 to 40 | – | + (20% to 40% inhibition = +) | 40 to 60 | 20 to 40 | ++++ (80% or greater inhibition = ++++) | – | inhibition at 25 µM (hT2R5): 20 to 40% |
| Cc1ccccc1NS(=O)(=O)c1ccc2c(c1)c(=O)n(C)c(=O)n2C [Example 6-9, 1,3-dimethyl-2,4-dioxo-N-o-tolyl-1,2,3,4-tetrahydroquinazoline-6-sulfonamide] | – | – | – | – | – | – | – | inhibition at 25 µM (hT2R7; [4]): 40 to 60%; IC50 (hT2R14 [1]): 1730 nM; inhibition at 25 µM (hT2R61; receptor activated to EC80 with agonist, read-out: inhibition of bitter receptor 61): 20 to 40%; inhibition of bitter receptor 63 (hT2R63): + (20% to 40% inhibition = +); inhibition at 25 µM (hT2R14 [2]; [5]): > 80%; inhibition of bitter receptor 44 (hT2R44; receptor activated to EC80 with agonist): + (20% to 40% inhibition = +) |
| N#Cc1ccccc1CN(Cc1ccccc1)S(=O)(=O)c1ccc(C(=O)O)cc1 [Example 5-92, 4-(N-benzyl-N-(2-cyanobenzyl)sulfamoyl)benzoic acid] | > 80 | 20 to 40 | ++++ (80% or greater inhibition = ++++) | > 80 | 40 to 60 | ++++ (80% or greater inhibition = ++++) | ++++ (80% or greater inhibition = ++++) | inhibition at 25 µM (hT2R7; receptor activated to EC80 with the corresponding agonist, read-out: screening result against bitter receptor 7): 20 to 40%; inhibition at 25 µM (hT2R10): 20 to 40%; inhibition at 25 µM (hT2R14 [2]; [6]): > 80%; inhibition at 25 µM (hT2R16): 20 to 40%; inhibition at 25 µM (hT2R5): 20 to 40% |
| Cc1c(F)cccc1NS(=O)(=O)c1ccc2c(c1)c(=O)n(C)c(=O)n2C [Example 6-7, N-(3-fluoro-2-methylphenyl)-1,3-dimethyl-2,4-dioxo-1,2,3,4-tetrahydroquinazoline-6-sulfonamide] | – | – | – | – | – | – | – | inhibition at 25 µM (hT2R7; [4]): 20 to 40%; inhibition of bitter receptor 63 (hT2R63): + (20% to 40% inhibition = +); inhibition at 25 µM (hT2R14 [2]; [5]): 40 to 60% |
| COc1ccc(CN(Cc2ccccc2)C(=O)Nc2ccc(C(=O)O)cc2)cc1 [Example 5-94, 4-(3-benzyl-3-(4-methoxybenzyl)ureido)benzoic acid] | 60 to 80 | 20 to 40 | – | 20 to 40 | 20 to 40 | – | ++ (40% to 60% inhibition = ++) | – |
| O=C(O)c1ccc(CN(Cc2ccc(F)cc2)S(=O)(=O)c2ccc(O)cc2)cc1 [Example 5-107, 4-((N-(4-fluorobenzyl)-4-hydroxyphenylsulfonamido)methyl)benzoic acid] | 60 to 80 | – | + (20% to 40% inhibition = +) | > 80 | 20 to 40 | +++ (60% to 80% inhibition = +++) | + (20% to 40% inhibition = +) | inhibition at 25 µM (hT2R14 [2]; [6]): 60 to 80% |
